Assay results published in paper PMC5715060, “Key site residues of pheromone-binding protein 1 involved in interacting with sex pheromone components of Helicoverpa armigera” (Scientific Reports, 2017).

Legend:
HarmPBP1 mutant W37A = HarmPBP1 mutant W37A (Helicoverpa armigera, UniProt F5ANH9, W64A); assay: Fluorescence binding assay (1-NPN probe), mutant W37A
Experimental: (§1) Fluorescence binding assays were performed in a reaction system at pH7.4. Probed by 1-NPN, the maximum emission wavelengths of F12A, F36A, W37A, F119A and Q64A were in the range of 390–410 nm, which are similar to that of HarmPBP1 (400 nm).
(§2) Four mutations of HarmPBP1, F12A (mutating phenylalanine to alanine at position 12), F36A (mutating phenylalanine to alanine at position 36), W37A (mutating tryptophan to alanine at position 37) and F119A (mutating phenylalanine to alanine at position 119) were generated by using the Quick-change lightning site-directed mutagenesis kit (Stratagene, USA), and a random mutation, Q64A (mutating glutanine to alanine at position 64) was set as control. The pGEM-T Easy/HarmPBP1 construct was used as template, and the specific primers designed for mutations were also listed in Table 1. The PCR conditions were 95 °C for 30 s, followed by 18 cycles of 95 °C for 30 s, 60 °C for 1 min, 68 °C for 4 min. Valid mutants were sub-cloned into pGEM-T easy vector (Promega, USA). Same expression vector and competent cells were used as the HarmPBP1. The recombinant mutant protein prokaryotic expression and purification were conducted as mentioned above.
(§3) Fluorescence binding assays were conducted on the F-380 fluorescence spectrophotometer (Gangdong Sci. & Tech, Tianjin, China) in a 1-cm light path quartz cuvette to further investigate the binding abilities of the principal pheromone components of H. armigera, Z11-16:Ald and Z9-16:Ald, to mutants. The fluorescent probe N-phenyl- 1-naphthylamine (1-NPN) was dissolved in methanol to yield a 1 mM stock solution. Both of the excitation and emission slit widths were 10 nm. Fluorescence of 1-NPN was excited at 337 nm and the emission spectra were recorded between 390 and 490 nm. Z11-16:Ald and Z9-16:Ald were purchased from Sigma-Aldrich (purity >98%). All chemicals used in this study were dissolved in HPLC purity grade methanol. Fluorescence measurements were performed according to Gu et al.[11]. Dissociation constants of the competitors were calculated from the corresponding IC50 (the ligand concentration displacing 50% of the NPN fluorescence intensity of the HarmPBP1/1-NPN complex) values, using the equation: Ki = [IC50]/(1 + [1-NPN]/K1-NPN), where [1-NPN] is the free concentration of 1-NPN and K1-NPN is the dissociation constant of the HarmPBP1/1-NPN complex.

HarmPBP1 mutant F119A = HarmPBP1 mutant F119A (Helicoverpa armigera, UniProt F5ANH9, F146A); assay: Fluorescence binding assay (1-NPN probe), mutant F119A
Sequence of HarmPBP1 mutant F119A (F5ANH9 entry or part of it F146A): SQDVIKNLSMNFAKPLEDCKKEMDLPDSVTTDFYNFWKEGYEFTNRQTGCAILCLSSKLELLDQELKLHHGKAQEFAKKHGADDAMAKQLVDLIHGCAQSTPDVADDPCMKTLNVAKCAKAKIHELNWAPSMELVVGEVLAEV
Experimental: as §1, §2, §3

HarmPBP1 mutant F12A = HarmPBP1 mutant F12A (Helicoverpa armigera, UniProt F5ANH9, F39A); assay: Fluorescence binding assay (1-NPN probe), mutant F12A
Sequence of HarmPBP1 mutant F12A (F5ANH9 entry or part of it F39A): as the sequence (F5ANH9 entry or part of it F146A) above, with F12A, A119F counted along it
Experimental: as §1, §2, §3

HarmPBP1 mutant F36A = HarmPBP1 mutant F36A (Helicoverpa armigera, UniProt F5ANH9, F63A); assay: Fluorescence binding assay (1-NPN probe), mutant F36A
Sequence of HarmPBP1 mutant F36A (F5ANH9 entry or part of it F63A): as the sequence (F5ANH9 entry or part of it F146A) above, with F36A, A119F counted along it
Experimental: as §1, §2, §3

HarmPBP1 (wild-type) = HarmPBP1 (wild-type) (Helicoverpa armigera, UniProt F5ANH9); assay: Fluorescence binding assay (1-NPN probe), wild-type HarmPBP1; settings: for Ki / IC50: wild-type HarmPBP1, pH 7.4; for Ki: calculated from IC50, Ki = [IC50]/(1 + [1-NPN]/K1-NPN), read-out: Ki, dissociation constant; for IC50: mean ± S.E.M, three replicates, read-out: IC50, ligand concentration displacing 50% of the fluorescence intensity of the protein/1-NPN complex
Sequence of HarmPBP1 (wild-type) (F5ANH9 entry or part of it): as the sequence (F5ANH9 entry or part of it F146A) above, with A119F counted along it
Experimental: as §1, §3

HarmPBP1 mutant Q64A = HarmPBP1 mutant Q64A (Helicoverpa armigera, UniProt F5ANH9, Q91A); assay: Fluorescence binding assay (1-NPN probe), control mutant Q64A
Sequence of HarmPBP1 mutant Q64A (F5ANH9 entry or part of it Q91A): as the sequence (F5ANH9 entry or part of it F146A) above, with Q64A, A119F counted along it
Experimental: as §1, §2, §3

Sequence of HarmPBP1 mutant W37A (F5ANH9 entry or part of it W64A): as the sequence (F5ANH9 entry or part of it F146A) above, with W37A, A119F counted along it

SMILES | Kd (HarmPBP1 mutant W37A) [nM] | Kd (HarmPBP1 mutant F119A) [nM] | Kd (HarmPBP1 mutant F12A) [nM] | Kd (HarmPBP1 mutant F36A) [nM] | Kd (HarmPBP1 (wild-type)) [nM] | Kd (HarmPBP1 mutant Q64A) [nM] | IC50 (HarmPBP1 mutant W37A) [nM] | Ki (HarmPBP1 mutant W37A) [nM] | IC50 (HarmPBP1 mutant F119A) [nM] | Ki (HarmPBP1 mutant F119A) [nM] | IC50 (HarmPBP1 mutant F12A) [nM] | Ki (HarmPBP1 mutant F12A) [nM] | IC50 (HarmPBP1 mutant F36A) [nM] | Ki (HarmPBP1 mutant F36A) [nM] | Ki (HarmPBP1 (wild-type)) [nM] | IC50 (HarmPBP1 (wild-type)) [nM] | IC50 (HarmPBP1 mutant Q64A) [nM] | Ki (HarmPBP1 mutant Q64A) [nM]
c1ccc(Nc2cccc3ccccc23)cc1 [1-NPN, N-phenyl-1-naphthylamine] | 1870 ± 180 | 1960 ± 160 | 2100 ± 170 | 4050 ± 690 | 1790 ± 140 | 2390 ± 190 | – | – | – | – | – | – | – | – | – | – | – | –
CCCCCC/C=C\CCCCCCCC=O [Z9-16:Ald, (Z)-9-hexadecenal] | – | – | – | – | – | – | 2220 ± 190 | 1490 ± 130 | 6910 ± 490 | 4610 ± 330 | 4630 ± 270 | 3060 ± 220 | 980 ± 150 | 720 ± 110 | 560 ± 50 | 870 ± 80 | 840 ± 60 | 580 ± 30
CCCC/C=C\CCCCCCCCCC=O [Z11-16:Ald, (Z)-11-hexadecenal] | – | – | – | – | – | – | 2910 ± 120 | 1950 ± 80 | 7660 ± 560 | 5110 ± 470 | 4690 ± 330 | 3100 ± 130 | 1040 ± 60 | 760 ± 80 | 670 ± 50 | 1030 ± 80 | 1120 ± 210 | 770 ± 130
